How the values were obtained:
[1] = biological target: T1, Rat brain constitutive nitric oxide synthase (rnNOS) (Rattus norvegicus, UniProt P29476); test: Citrulline Assay for Nitric Oxide Synthase, rat brain constitutive NOS; assay type: biochemical; conditions: rat brain cNOS; 50 nM calmodulin, 30 μM L-arginine, 37° C., 15 minutes
T1 construct: an extract of rat cerebellum and partially purified by DEAE-Sepharose chromatography; from tissue; host or cells: rat cerebellum (extract, partially purified by DEAE-Sepharose)
Procedure: Nitric oxide synthase activity was measured by monitoring the conversion of [3H]-arginine to [3H]-citrulline. Mouse inducible nitric oxide synthase (miNOS) was prepared from an extract of LPS-treated RAW 264.7 cells and partially purified by DEAE-Sepharose chromatography. Rat brain constitutive nitric oxide synthase (rnNOS) was preparedfrom an extract of rat cerebellum and partially purified by DEAE-Sepharose chromatography. Enzyme and inhibitors were incubated at 37° C. for 15 minutes in a reaction volume of 100 μL with the following components added to start the reaction: 50 mM Tris (pH 7.6), 1 mg/ml bovine serum albumin, 1 mM DTT, 2 mM CaCl2, 10 μM FAD, 10 μM tetrahydrobiopterin, 30 μM L-arginine containing L-[2,3-3H]-arginine at 300 cpm/pmole and 1 mM NADPH. For constitutive NOS, 50 nM calmodulin was also added. The reaction was terminated by addition of cold stop buffer containing 10 mM EGTA, 100 mM HEPES, pH 5.5 and 1 mM citrulline. [3H]-Citrulline was separated by chromatography on Dowex 50W X-8 cation exchange resin and radioactivity determined with a liquid scintillation counter.

[2] = biological target: T2, Mouse inducible nitric oxide synthase (miNOS) (Mus musculus, UniProt P29477); test: Citrulline Assay for Nitric Oxide Synthase, mouse inducible NOS; assay type: biochemical; conditions: mouse iNOS; 30 μM L-arginine, 37° C., 15 minutes
T2 construct: was prepared from an extract of LPS-treated RAW 264.7 cells and partially purified by DEAE-Sepharose chromatography; endogenous in cells; host or cells: LPS-treated RAW 264.7 cells (extract, partially purified by DEAE-Sepharose)
Procedure: Nitric oxide synthase activity was measured by monitoring the conversion of [3H]-arginine to [3H]-citrulline. Mouse inducible nitric oxide synthase (miNOS) was prepared from an extract of LPS-treated RAW 264.7 cells and partially purified by DEAE-Sepharose chromatography. […] Enzyme and inhibitors were incubated at 37° C. for 15 minutes in a reaction volume of 100 μL with the following components added to start the reaction: 50 mM Tris (pH 7.6), 1 mg/ml bovine serum albumin, 1 mM DTT, 2 mM CaCl2, 10 μM FAD, 10 μM tetrahydrobiopterin, 30 μM L-arginine containing L-[2,3-3H]-arginine at 300 cpm/pmole and 1 mM NADPH. […] The reaction was terminated by addition of cold stop buffer containing 10 mM EGTA, 100 mM HEPES, pH 5.5 and 1 mM citrulline. [3H]-Citrulline was separated by chromatography on Dowex 50W X-8 cation exchange resin and radioactivity determined with a liquid scintillation counter.

[3] = test system: intracellular iNOS in RAW 264.7 cells; test: Raw Cell Nitrite Assay; assay type: cell-based; conditions: Mus musculus, RAW264.7, LPS-induced RAW 264.7 cells, 30 μM L-arginine, 1 h at 37° C.
Procedure: RAW 264.7 cells are plated to confluency on a 96-well tissue culture plate grown overnight (17 h) in the presence of LPS to induce NOS. A row of 3-6 wells were left untreated and served as controls for subtraction of nonspecific background. The media was removed from each well and the cells are washed twice with Krebs-Ringers-Hepes (25 mM, pH 7.4) with 2 mg/ml glucose. The cells are then placed on ice and incubated with 50 μL of buffer containing L-arginine (30 μM) +/- inhibitors for 1 h. The assay is initiated by warming the plate to 37° C. in a water bath for 1 h. Production of nitrite by intracellular iNOS is linear with time. To terminate the cellular assay, the plate of cells is placed on ice and the nitrite-containing buffer removed and analyzed for nitrite using a previously published fluorescent determination for nitrite. All values are the average of triplicate wells and are compared to a background-subtracted induced set of cells (100% value).

T2 sequence (P29477 whole entry): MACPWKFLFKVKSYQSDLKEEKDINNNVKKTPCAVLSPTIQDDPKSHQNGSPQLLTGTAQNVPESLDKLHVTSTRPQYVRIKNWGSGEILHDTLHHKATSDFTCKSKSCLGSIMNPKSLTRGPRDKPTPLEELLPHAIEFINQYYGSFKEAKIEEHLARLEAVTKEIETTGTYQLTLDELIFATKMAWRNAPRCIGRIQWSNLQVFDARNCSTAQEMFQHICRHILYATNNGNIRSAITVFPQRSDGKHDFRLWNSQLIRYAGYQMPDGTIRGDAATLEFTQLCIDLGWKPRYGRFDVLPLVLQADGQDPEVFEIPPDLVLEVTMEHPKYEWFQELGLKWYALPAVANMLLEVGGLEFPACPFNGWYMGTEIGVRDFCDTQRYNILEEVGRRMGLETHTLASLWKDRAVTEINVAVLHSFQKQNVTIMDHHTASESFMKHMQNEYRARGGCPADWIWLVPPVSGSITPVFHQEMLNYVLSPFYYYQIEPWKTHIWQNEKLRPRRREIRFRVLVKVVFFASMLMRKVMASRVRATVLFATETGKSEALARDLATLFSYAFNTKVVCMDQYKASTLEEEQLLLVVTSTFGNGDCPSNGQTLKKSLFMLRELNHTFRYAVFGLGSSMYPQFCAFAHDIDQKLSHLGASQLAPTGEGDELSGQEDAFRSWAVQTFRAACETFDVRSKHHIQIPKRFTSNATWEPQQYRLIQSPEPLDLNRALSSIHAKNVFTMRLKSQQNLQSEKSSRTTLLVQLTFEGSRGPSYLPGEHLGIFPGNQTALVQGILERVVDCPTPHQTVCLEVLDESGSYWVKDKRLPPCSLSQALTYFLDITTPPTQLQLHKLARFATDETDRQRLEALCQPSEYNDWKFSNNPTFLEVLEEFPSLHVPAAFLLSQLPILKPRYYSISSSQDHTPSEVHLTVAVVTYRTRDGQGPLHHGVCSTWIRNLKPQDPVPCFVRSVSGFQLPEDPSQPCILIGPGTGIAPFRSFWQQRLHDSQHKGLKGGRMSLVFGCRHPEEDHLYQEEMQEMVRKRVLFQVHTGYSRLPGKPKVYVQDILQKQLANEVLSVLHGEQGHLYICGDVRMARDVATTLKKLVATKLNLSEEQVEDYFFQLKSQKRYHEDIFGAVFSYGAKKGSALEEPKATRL

`CC(C)C(=N)N` [Example 3, Isopropylcarbamidine] was tested, and the IC50 [1] was 31 µM and the IC50 [2] was 27 µM.
`CCCC(=N)N` [Example 4, 1-Propylcarbamidine] showed an IC50 [1] of 7.3 µM and an IC50 [2] of 2 µM.
`CSCC(=N)N` [Example 11] was tested, and the IC50 [1] was 7 µM, the IC50 [3] was 60 µM and the IC50 [2] was 2 µM.
In the case of `N=C(N)c1cccs1` [Example 8, 2-Amidinothiophene], the IC50 [1] is reported as 1.3 µM, the IC50 [3] is reported as 7 µM and the IC50 [2] is reported as 1 µM.
Work on `N=C(N)C1CC1` [Example 2, Cyclopropylcarbamidine] yielded an IC50 [1] of 10 µM, an IC50 [3] of 46 µM and an IC50 [2] of 2.3 µM.
`N=C(N)c1ccco1` [Example 9, 2-Amidinofuran] gave an IC50 [1] of 3 µM, an IC50 [3] of 158 µM and an IC50 [2] of 3 µM.
`CCC(=N)N` [Example 5, Ethylcarbamidine] showed an IC50 [1] of 44 µM and an IC50 [2] of 16 µM.
